Assay [1] addresses T1, eIF2B mutant B5 R195H (HEK293T ATF4-Fluc cells) (Homo sapiens, UniProt P49770+Q13144+Q9UI10, R195H).
T1 construct: endogenous in cells
Nature of the assay: ATF4-Luc assay, VWMD eIF2B mutant B5 R195H. The class given is cell-based. Conditions: 1 μg/mL tunicamycin, 7 hours. The protocol:
(§1) In order to test exemplary compounds of the invention in a cellular context, a stable VWMD cell line was first constructed. The ATF4 reporter was prepared by fusing the human full-length ATF4 5′-UTR (NCBI Accession No. BC022088.2) in front of the firefly luciferase (FLuc) coding sequence lacking the initiator methionine as described in Sidrauski et al (eLife 2013). The construct was used to produce recombinant retroviruses using standard methods and the resulting viral supernatant was used to transduce HEK293T cells, which were then subsequently selected with puromycin to generate a stable cell line.
(§2) HEK293T cells carrying the ATF4 luciferase reporter were plated on polylysine coated 384-well plates (Greiner Bio-one) at 30,000 cells per well. Cells were treated the next day with 1 μg/mL tunicamycin and 200 nM of a compound of Formula (I) for 7 hours. Luminescence was measured using One Glo (Promega) as specified by the manufacturer. Cells were maintained in DMEM with L-glutamine supplemented with 10% heat-inactivated FBS (Gibco) and Antibiotic-Antimycotic solution (Gibco).
(§3) VWMD mutations were introduced into the genome of the HEK293T ATF4-Fluc stable cell lines by using Gene Art CRISPR nuclease vector with OFP Reporter kit (ThermoFisher; see Table 3 below). Guide RNAs were designed using the CRISPR Design Tool (http://crispr.mit.edu) and ligated into the CRISPR OFP Nuclease Vector. To obtain homology directed repair (HDR) incorporating VWMD point mutations in the genome, 150 bp ssDNA ultramer oligos were synthesized by Integrated DNA Technologies containing specific mutations of interest. In addition to the VWMD mutations, the ssDNA HDR templates contained a silent mutation to the PAM site of the CRISPR gRNA sequence (to avoid further Cas9 cutting) and 75 bp of homology on each side of the mutation.
(§4) HEK293T ATF4-Fluc cells were transfected with 500 ng of the CRISPR OFP Nuclease Vector and 1 uL of 10 μM ssDNA HDR template using lipofectamine 3000 (ThermoFisher) or SF Cell Line 4D-nucleofector X Kit (Lonza) according to the manufacturer's instructions. After 2-3 days of recovery, single cells were sorted for positive OFP expression on a FACS Aria II (BD Biosciences) into wells of a 96 well plate and allowed to recover for 1-2 weeks.
(§5) The resulting clones were surveyed for CRISPR editing and HDR by harvesting the genomic DNA with the PureLink Genomic DNA kit (ThermoFisher), amplifying a […] locus near the editing site, and sequencing the amplicon. […] Typical clones obtained were hemizygous for the VWMD point mutation, with one or two alleles harboring the desired mutation, and the remaining alleles knocked out (edited to produce a premature stop codon). […]

In assay [2] the target is T2, eIF2B mutant B4 R483W (HEK293T ATF4-Fluc cells) (Homo sapiens, UniProt P49770+Q9UI10, R483W).
T2 construct: endogenous in cells
Nature of the assay: ATF4-Luc assay, VWMD eIF2B mutant B4 R483W. The class given is cell-based. Conditions: 1 μg/mL tunicamycin, 7 hours. As to the method: as §1, §2, §3, §4, §5

The target in assay [3] is T3, eIF2B mutant B3 I346T (HEK293T ATF4-Fluc cells) (Homo sapiens, UniProt P49770+Q9NR50+Q9UI10, I346T).
T3 construct: endogenous in cells
Nature of the assay: ATF4-Luc assay, VWMD eIF2B mutant B3 I346T. It is filed as cell-based. The note with it: 1 μg/mL tunicamycin, 7 hours. The protocol: as §1, §2, §3, §4, §5

Assay [4] addresses T4, eIF2B mutant B1 V183F (HEK293T ATF4-Fluc cells) (Homo sapiens, UniProt P49770+Q14232+Q9UI10, V183F).
T4 construct: endogenous in cells
Nature of the assay: ATF4-Luc assay, VWMD eIF2B mutant B1 V183F. The note with it: 1 μg/mL tunicamycin, 7 hours. The class given is cell-based. The protocol:
as §1, §2, §3, §4, §5

The target of assay [5] is T5, eIF2B mutant B5 R113H (HEK293T ATF4-Fluc cells) (Homo sapiens, UniProt P49770+Q13144+Q9UI10, R113H).
T5 construct: endogenous in cells
Nature of the assay: ATF4-Luc assay, VWMD eIF2B mutant B5 R113H. The class given is cell-based. Conditions: 1 μg/mL tunicamycin, 7 hours. The protocol:
as §1, §2, §3, §4, §5

For assay [6], the system named is ATF4 luciferase reporter in HEK293T cells. Nature of the assay: ATF4-Luc assay (ATF4 luciferase reporter, tunicamycin-treated HEK293T cells). Conditions: Homo sapiens, HEK-293T; HEK293T cells carrying the ATF4 luciferase reporter, 1 μg/mL tunicamycin, 7 hours. It is filed as cell-based, human.
Assay [7] deals with T6, eIF2B mutant B3 H341Q (HEK293T ATF4-Fluc cells) (Homo sapiens, UniProt P49770+Q9NR50+Q9UI10, H341Q).
T6 construct: endogenous in cells
Nature of the assay: ATF4-Luc assay, VWMD eIF2B mutant B3 H341Q. It is filed as cell-based. Conditions: 1 μg/mL tunicamycin, 7 hours. As to the method:
as §1, §2, §3, §4, §5

The target of assay [8] is T7, eIF2B mutant B4 R357W (HEK293T ATF4-Fluc cells) (Homo sapiens, UniProt P49770+Q9UI10, R357W).
T7 construct: endogenous in cells
Nature of the assay: ATF4-Luc assay, VWMD eIF2B mutant B4 R357W. The class given is cell-based. Conditions: 1 μg/mL tunicamycin, 7 hours. The protocol:
as §1, §2, §3, §4, §5

Bounds are passed on as bounds.

T2 sequence (Q9UI10 whole entry R483W): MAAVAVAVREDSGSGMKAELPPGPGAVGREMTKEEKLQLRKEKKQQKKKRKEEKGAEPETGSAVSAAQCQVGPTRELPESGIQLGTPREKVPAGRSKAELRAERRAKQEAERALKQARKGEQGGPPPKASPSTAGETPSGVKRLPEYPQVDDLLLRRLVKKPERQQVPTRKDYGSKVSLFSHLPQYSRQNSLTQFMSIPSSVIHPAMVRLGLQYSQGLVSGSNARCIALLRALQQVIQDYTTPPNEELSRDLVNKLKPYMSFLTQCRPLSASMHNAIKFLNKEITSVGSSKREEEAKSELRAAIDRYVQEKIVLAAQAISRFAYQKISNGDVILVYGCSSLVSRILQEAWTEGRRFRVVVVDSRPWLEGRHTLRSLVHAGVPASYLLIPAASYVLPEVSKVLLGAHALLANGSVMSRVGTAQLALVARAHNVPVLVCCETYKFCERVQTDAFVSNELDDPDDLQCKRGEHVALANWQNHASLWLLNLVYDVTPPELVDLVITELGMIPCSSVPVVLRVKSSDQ
T2 sequence (Q14232 whole entry partner): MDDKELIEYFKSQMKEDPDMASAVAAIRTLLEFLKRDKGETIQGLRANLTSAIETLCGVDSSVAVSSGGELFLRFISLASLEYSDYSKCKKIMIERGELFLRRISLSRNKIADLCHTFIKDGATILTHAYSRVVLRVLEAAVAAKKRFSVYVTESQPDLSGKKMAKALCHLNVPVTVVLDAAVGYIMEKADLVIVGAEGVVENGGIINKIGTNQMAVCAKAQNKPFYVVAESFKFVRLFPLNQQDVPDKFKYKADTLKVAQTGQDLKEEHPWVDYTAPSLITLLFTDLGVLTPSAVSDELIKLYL
T2 sequence (P49770 whole entry): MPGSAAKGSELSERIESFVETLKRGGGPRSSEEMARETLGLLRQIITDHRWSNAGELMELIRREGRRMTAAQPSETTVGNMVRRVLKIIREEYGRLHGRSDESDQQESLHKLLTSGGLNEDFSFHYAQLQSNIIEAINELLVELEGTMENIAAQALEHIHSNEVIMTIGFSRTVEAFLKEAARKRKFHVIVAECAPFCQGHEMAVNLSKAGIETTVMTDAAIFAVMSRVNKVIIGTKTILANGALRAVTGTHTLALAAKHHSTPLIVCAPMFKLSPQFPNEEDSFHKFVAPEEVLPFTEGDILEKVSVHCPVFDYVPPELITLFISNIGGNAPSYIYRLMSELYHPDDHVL
T2 sequence (Q9NR50 whole entry partner): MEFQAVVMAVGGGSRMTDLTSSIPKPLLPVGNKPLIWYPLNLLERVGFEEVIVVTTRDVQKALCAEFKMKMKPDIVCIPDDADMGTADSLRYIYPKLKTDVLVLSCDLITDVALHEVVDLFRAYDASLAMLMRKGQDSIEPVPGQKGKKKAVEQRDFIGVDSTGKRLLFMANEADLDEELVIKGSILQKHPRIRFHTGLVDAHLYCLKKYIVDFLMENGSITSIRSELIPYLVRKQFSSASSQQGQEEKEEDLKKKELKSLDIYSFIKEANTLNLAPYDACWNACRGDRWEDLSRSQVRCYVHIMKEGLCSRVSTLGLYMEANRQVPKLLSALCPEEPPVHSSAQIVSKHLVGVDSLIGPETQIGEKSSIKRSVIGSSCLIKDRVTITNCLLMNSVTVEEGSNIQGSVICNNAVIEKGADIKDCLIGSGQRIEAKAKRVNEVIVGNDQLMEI
T2 sequence (Q13144 whole entry partner): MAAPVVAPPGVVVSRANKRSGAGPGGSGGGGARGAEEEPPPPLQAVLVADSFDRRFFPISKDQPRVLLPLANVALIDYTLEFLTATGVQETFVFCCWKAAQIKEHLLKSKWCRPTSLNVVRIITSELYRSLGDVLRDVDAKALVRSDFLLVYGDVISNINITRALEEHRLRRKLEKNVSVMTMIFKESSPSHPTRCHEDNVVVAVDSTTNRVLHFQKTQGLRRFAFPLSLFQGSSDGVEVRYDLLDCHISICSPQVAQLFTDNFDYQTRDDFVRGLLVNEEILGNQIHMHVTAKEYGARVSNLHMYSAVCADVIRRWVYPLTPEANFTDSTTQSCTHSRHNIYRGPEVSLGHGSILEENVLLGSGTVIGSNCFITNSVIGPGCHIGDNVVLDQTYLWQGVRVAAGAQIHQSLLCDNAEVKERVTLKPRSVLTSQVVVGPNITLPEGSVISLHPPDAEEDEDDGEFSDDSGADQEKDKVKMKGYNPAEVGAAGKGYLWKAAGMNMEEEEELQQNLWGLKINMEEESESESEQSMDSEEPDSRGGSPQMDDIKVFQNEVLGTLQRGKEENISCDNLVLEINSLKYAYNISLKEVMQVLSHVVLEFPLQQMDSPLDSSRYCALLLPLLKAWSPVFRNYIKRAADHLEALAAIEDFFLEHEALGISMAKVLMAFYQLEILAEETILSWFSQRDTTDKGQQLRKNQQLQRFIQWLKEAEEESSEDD
T5 sequence (Q13144 whole entry R113H): as the sequence (Q13144 whole entry partner) above, with R113H counted along it
T5 sequence (Q14232 whole entry partner): as the sequence (Q14232 whole entry partner) above
T5 sequence (P49770 whole entry): as the sequence (P49770 whole entry) above
T5 sequence (Q9NR50 whole entry partner): as the sequence (Q9NR50 whole entry partner) above
T5 sequence (Q9UI10 whole entry): as the sequence (Q9UI10 whole entry R483W) above, with W483R counted along it
T4 sequence (Q14232 whole entry V183F): as the sequence (Q14232 whole entry partner) above, with V183F counted along it
T4 sequence (P49770 whole entry): as the sequence (P49770 whole entry) above
T4 sequence (Q9NR50 whole entry partner): as the sequence (Q9NR50 whole entry partner) above
T4 sequence (Q9UI10 whole entry): as the sequence (Q9UI10 whole entry R483W) above, with W483R counted along it
T4 sequence (Q13144 whole entry partner): as the sequence (Q13144 whole entry partner) above
T7 sequence (Q9UI10 whole entry R357W): as the sequence (Q9UI10 whole entry R483W) above, with R357W, W483R counted along it
T7 sequence (Q14232 whole entry partner): as the sequence (Q14232 whole entry partner) above
T7 sequence (P49770 whole entry): as the sequence (P49770 whole entry) above
T7 sequence (Q9NR50 whole entry partner): as the sequence (Q9NR50 whole entry partner) above
T7 sequence (Q13144 whole entry partner): as the sequence (Q13144 whole entry partner) above
T1 sequence (Q13144 whole entry R195H): as the sequence (Q13144 whole entry partner) above, with R195H counted along it
T1 sequence (Q14232 whole entry partner): as the sequence (Q14232 whole entry partner) above
T1 sequence (P49770 whole entry): as the sequence (P49770 whole entry) above
T1 sequence (Q9NR50 whole entry partner): as the sequence (Q9NR50 whole entry partner) above
T1 sequence (Q9UI10 whole entry): as the sequence (Q9UI10 whole entry R483W) above, with W483R counted along it
T6 sequence (Q9NR50 whole entry H341Q): as the sequence (Q9NR50 whole entry partner) above, with H341Q counted along it
T6 sequence (Q14232 whole entry partner): as the sequence (Q14232 whole entry partner) above
T6 sequence (P49770 whole entry): as the sequence (P49770 whole entry) above
T6 sequence (Q9UI10 whole entry): as the sequence (Q9UI10 whole entry R483W) above, with W483R counted along it
T6 sequence (Q13144 whole entry partner): as the sequence (Q13144 whole entry partner) above
T3 sequence (Q9NR50 whole entry I346T): as the sequence (Q9NR50 whole entry partner) above, with I346T counted along it
T3 sequence (Q14232 whole entry partner): as the sequence (Q14232 whole entry partner) above
T3 sequence (P49770 whole entry): as the sequence (P49770 whole entry) above
T3 sequence (Q9UI10 whole entry): as the sequence (Q9UI10 whole entry R483W) above, with W483R counted along it
T3 sequence (Q13144 whole entry partner): as the sequence (Q13144 whole entry partner) above

Consider `O=C(COc1ccc(Cl)c(F)c1)NC12CCC(NC(=O)COc3ccc(Cl)c(F)c3)(CC1)[C@@H](O)C2` (single isomer, unassigned) [Compound 297], for which the EC50 in assay [1], in assay [2], in assay [3], in assay [4], in assay [5] and in assay [6] was less than 10 nM throughout. Also, the EC50 in assay [7] and in assay [8] was less than 10 nM each time.

For `O=C(COc1ccc(Cl)cc1)NC12CC(NC(=O)COc3ccc(Cl)cc3)(C1)C2` [Compound 112, N,N′-(bicyclo[1.1.1]pentane-1,3-diyl)bis[2-(4-chlorophenoxy)acetamide]], the EC50 in assay [1], in assay [2], in assay [3], in assay [4], in assay [5] and in assay [6] was less than 10 nM in each case. Further, the concentration giving a half-maximal response (EC50) in assay [7] and in assay [8] was less than 10 nM in each case.

With `O=C(COc1ccc(C(F)(F)F)nc1)NC12CC(NC(=O)COc3ccc(Cl)c(F)c3)(C1)C2` [Compound 175, 2-(4-chloro-3-fluorophenoxy)-N-[3-(2-{[6-(trifluoromethyl)pyridin-3-yl]oxy}acetamido)bicyclo[1.1.1]pentan-1-yl]acetamide], the EC50 in assay [1] is 10 to 50 nM; in assay [2], less than 10 nM; in assay [3], less than 10 nM; in assay [4], 50 to 250 nM; in assay [5], 10 to 50 nM; in assay [6], less than 10 nM. In addition, the EC50 in assay [7] and in assay [8] was 10 to 50 nM each time.

`Cc1noc(COCC(=O)NC23CC(NC(=O)COc4ccc(Cl)c(F)c4)(C2)C3)n1` [Compound 217, 2-(4-chloro-3-fluorophenoxy)-N-(3-{2-[(3-methyl-1,2,4-oxadiazol-5-yl)methoxy]acetamido}bicyclo[1.1.1]pentan-1-yl)acetamide]: the EC50 in assay [1] was 500 to 2000 nM; in assay [2] it was more than 2000 nM; in assay [3], 500 to 2000 nM; in assay [4], more than 2000 nM; in assay [5], more than 2000 nM; in assay [6], 500 to 2000 nM. Besides, the EC50 in assay [7] and in assay [8] was 500 to 2000 nM each time.

Take `O=C(COc1ccc(F)c(C(F)(F)F)c1)NC12CCC(NC(=O)COc3ccc(Cl)c(F)c3)(CC1)[C@@H](O)C2` [Compound 848, 2-(4-chloro-3-fluorophenoxy)-N-[(2S)-4-{2-[4-fluoro-3-(trifluoromethyl)phenoxy]acetamido}-2-hydroxybicyclo[2.2.2]octan-1-yl]acetamide]: in assay [6], the EC50 is less than 10 nM.

Turning to `O=C(COc1ccc(C(F)(F)F)c(F)c1)NC12CCC(NC(=O)COc3ccc(Cl)c(F)c3)(CC1)[C@@H](O)C2` [Compound 849, 2-(4-chloro-3-fluorophenoxy)-N-[(2S)-4-{2-[3-fluoro-4-(trifluoromethyl)phenoxy]acetamido}-2-hydroxybicyclo[2.2.2]octan-1-yl]acetamide], the EC50 in assay [6] was less than 10 nM.

These data come from patent US20240166652A1, “MODULATORS OF THE INTEGRATED STRESS PATHWAY” (Calico Life Sciences LLC, priority 2017, published 2024).
